In the experiment the test system is 227483-062-R1-J1-PDC complex spheroids with HUVEC/MSC, viability. In words: Anticancer human tumor 227483-062-R1-J1-PDC patient-derived pancreatic carcinoma cell line growth inhibition [CLK]. Conditions: for viability, T/C: stronger effect = lower value. The gist of the method:
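Multi-cell-type spheroids combined patient-derived tumor cells with HUVEC endothelial cells and human mesenchymal stem cells. Paired agents were dosed in half-log steps down from about clinical Cmax, or from 10 microM where Cmax was unknown.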

Setting [1] is: curve of first compound, second compound 0.0316 µM.
[2] abbreviates: curve of first compound, second compound 0.1 µM.
Setting [3] is: curve of first compound, second compound 0.316 µM.
Setting [4] is: curve of first compound, second compound 1 µM.
Where [5] appears, read: curve of first compound, second compound 3.16 µM.
[6] abbreviates: curve of first compound, second compound 10 µM.

Where “and” joins values, the source holds several entries; their conditions need not be identical. Equal entries are not always repeated.
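Further: spheroids exposed to compounds for seven days before readout.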
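Wherever viability, T/C is given: percent of DMSO vehicle control luminescence as 100% viability.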

By viability, T/C is commonly meant the result in the treated group divided by that in the control group, in per cent. The term IC50 denotes the midpoint of a concentration-inhibition curve. For `CC(C)CC(NC(=O)C(Cc1ccccc1)NC(=O)c1cnccn1)B(O)O` (stereo not given), the viability, T/C reads like this: (compound 0.000949 µM) 86.6% and 81.9%; (compound 0.003 µM) 2.59% and 1.33%; (compound 0.00949 µM) 0.56% and 0.57%; (compound 0.03 µM) 2.03% and 0.48%; (compound 0.0949 µM) 0.64% and 0.38%; (compound 0.3 µM) 0.96% and 0.35%. The IC50 (curve of compound) was 1.57 nM and 1.5 nM.

On to `C=CC(=O)Nc1cc(Nc2nccc(-c3cn(C)c4ccccc34)n2)c(OC)cc1N(C)CCN(C)C`, for which the viability, T/C by setting is: (compound 0.000949 µM) 99.8% and 83%; (compound 0.003 µM) 104% and 92.1%; (compound 0.00949 µM) 103% and 119%; (compound 0.03 µM) 113% and 109%; (compound 0.0949 µM) 95.1% and 102%; (compound 0.3 µM) 84.3% and 81.2%. Where the note is “curve of compound”, the IC50 was over 300 nM.

For `CCN1CCN(Cc2ccc(Nc3ncc(F)c(-c4cc(F)c5nc(C)n(C(C)C)c5c4)n3)nc2)CC1` + CNC(=O)c1ccc(Nc2nc(OC3CCCC3)c3c(-c4ccc5nc(C)oc5c4)c[nH]c3n2)c(OC)c1, the IC50 was over 1000 nM under setting [1]; over 1000 nM under setting [2]; over 1000 nM under setting [3]; over 1000 nM under setting [4]; 577 nM under setting [5]; over 1000 nM under setting [6]. Further, the viability, T/C (second compound 0.0316 µM, first compound 0.00316 µM) is 103%; the viability, T/C (second compound 0.0316 µM, first compound 0.01 µM) was 89.3%; the viability, T/C (second compound 0.0316 µM, first compound 0.0316 µM) is 86.9%; the viability, T/C (second compound 0.0316 µM, first compound 0.1 µM) was 82.1%; the viability, T/C (second compound 0.0316 µM, first compound 0.316 µM) is 79.3%; the viability, T/C (second compound 0.0316 µM, first compound 1 µM) is 81.8%. The viability, T/C reads like this: (second compound 0.1 µM, first compound 0.00316 µM) 103%; (second compound 0.1 µM, first compound 0.01 µM) 115%; (second compound 0.1 µM, first compound 0.0316 µM) 95.3%; (second compound 0.1 µM, first compound 0.1 µM) 103%; (second compound 0.1 µM, first compound 0.316 µM) 76.9%; (second compound 0.1 µM, first compound 1 µM) 79%. In addition, the viability, T/C runs as follows: (second compound 0.316 µM, first compound 0.00316 µM) 86.3%; (second compound 0.316 µM, first compound 0.01 µM) 94.2%; (second compound 0.316 µM, first compound 0.0316 µM) 88.8%; (second compound 0.316 µM, first compound 0.1 µM) 74%; (second compound 0.316 µM, first compound 0.316 µM) 70.7%; (second compound 0.316 µM, first compound 1 µM) 67.9%. Moreover, the viability, T/C is, setting by setting: (second compound 1 µM, first compound 0.00316 µM) 75.4%; (second compound 1 µM, first compound 0.01 µM) 72.4%; (second compound 1 µM, first compound 0.0316 µM) 64.4%; (second compound 1 µM, first compound 0.1 µM) 75.1%; (second compound 1 µM, first compound 0.316 µM) 60.6%; (second compound 1 µM, first compound 1 µM) 53.1%. Also, the viability, T/C is 65% (second compound 3.16 µM, first compound 0.00316 µM); 64.7% (second compound 3.16 µM, first compound 0.01 µM); 61.7% (second compound 3.16 µM, first compound 0.0316 µM); 57.4% (second compound 3.16 µM, first compound 0.1 µM); 60.8% (second compound 3.16 µM, first compound 0.316 µM); 41.4% (second compound 3.16 µM, first compound 1 µM). The viability, T/C runs as follows: (second compound 10 µM, first compound 0.00316 µM) 41.9%; (second compound 10 µM, first compound 0.01 µM) 56.5%; (second compound 10 µM, first compound 0.0316 µM) 60.4%; (second compound 10 µM, first compound 0.1 µM) 74.6%; (second compound 10 µM, first compound 0.316 µM) 65.2%; (second compound 10 µM, first compound 1 µM) 37.1%.

`C=CC(=O)Nc1cc(Nc2nccc(-c3cn(C)c4ccccc34)n2)c(OC)cc1N(C)CCN(C)C` + CNC(=O)c1ccc(Nc2nc(OC3CCCC3)c3c(-c4ccc5nc(C)oc5c4)c[nH]c3n2)c(OC)c1: the IC50 by setting is: under setting [1], over 300 nM; under setting [2], over 300 nM; under setting [3], over 300 nM; under setting [4], over 300 nM; under setting [5], under 0.949 nM; under setting [6], under 0.949 nM. Further, the viability, T/C reads like this: (second compound 0.0316 µM, first compound 0.000949 µM) 95.2%; (second compound 0.0316 µM, first compound 0.003 µM) 94.2%; (second compound 0.0316 µM, first compound 0.00949 µM) 108%; (second compound 0.0316 µM, first compound 0.03 µM) 98.6%; (second compound 0.0316 µM, first compound 0.0949 µM) 76.4%; (second compound 0.0316 µM, first compound 0.3 µM) 80.8%. The viability, T/C was 93.7% (second compound 0.1 µM, first compound 0.000949 µM); 103% (second compound 0.1 µM, first compound 0.003 µM); 85.4% (second compound 0.1 µM, first compound 0.00949 µM); 102% (second compound 0.1 µM, first compound 0.03 µM); 71.9% (second compound 0.1 µM, first compound 0.0949 µM); 69.7% (second compound 0.1 µM, first compound 0.3 µM). Further, the viability, T/C was 73.1% (second compound 0.316 µM, first compound 0.000949 µM); 84.8% (second compound 0.316 µM, first compound 0.003 µM); 89.9% (second compound 0.316 µM, first compound 0.00949 µM); 63.8% (second compound 0.316 µM, first compound 0.03 µM); 83.7% (second compound 0.316 µM, first compound 0.0949 µM); 60.3% (second compound 0.316 µM, first compound 0.3 µM). Besides, the viability, T/C (second compound 1 µM, first compound 0.000949 µM) is 58.6%; the viability, T/C (second compound 1 µM, first compound 0.003 µM) was 50.4%; the viability, T/C (second compound 1 µM, first compound 0.00949 µM) was 69.6%; the viability, T/C (second compound 1 µM, first compound 0.03 µM) is 66.1%; the viability, T/C (second compound 1 µM, first compound 0.0949 µM) is 56.2%; the viability, T/C (second compound 1 µM, first compound 0.3 µM) is 49.6%. In addition, the viability, T/C was 45.4% (second compound 3.16 µM, first compound 0.000949 µM); 47.5% (second compound 3.16 µM, first compound 0.003 µM); 52.5% (second compound 3.16 µM, first compound 0.00949 µM); 42.2% (second compound 3.16 µM, first compound 0.03 µM); 51.1% (second compound 3.16 µM, first compound 0.0949 µM); 52.2% (second compound 3.16 µM, first compound 0.3 µM). Besides, the viability, T/C by setting is: (second compound 10 µM, first compound 0.000949 µM) 42.5%; (second compound 10 µM, first compound 0.003 µM) 41.9%; (second compound 10 µM, first compound 0.00949 µM) 38.4%; (second compound 10 µM, first compound 0.03 µM) 40.9%; (second compound 10 µM, first compound 0.0949 µM) 51.4%; (second compound 10 µM, first compound 0.3 µM) 32.9%.

Consider `O=c1[nH]cc(F)c(=O)[nH]1`, for which the viability, T/C (compound 0.0316 µM) is 103% and 83.9%; the viability, T/C (compound 0.1 µM) is 94.2% and 84.8%; the viability, T/C (compound 0.316 µM) was 97% and 96.9%; the viability, T/C (compound 1 µM) is 57%; the viability, T/C (compound 3.16 µM) was 44.8% and 48%; the viability, T/C (compound 10 µM) was 35.4% and 35.5%. Also, for the setting “curve of compound”, the IC50 is 1650 nM and 1700 nM.

Source of the values: PubChem BioAssay AID2060623 (Molecular Pharmacology Branch, DTP, NCI, 2025).
